Source: patent US12617765B2, “Cannabinoid derivatives” (CANOPY GROWTH CORPORATION, priority 2019, dated 2026)
Where two headings read alike, the source gives them in different places.

Assays:
human CB2 receptor = molecular target: T1, human CB2 receptor (Homo sapiens, UniProt P34972); experiment: CB2 radioligand competitive binding assay ([3H]CP 55,940 displacement); conditions: for Selectivity CB2: fold difference in selectivity between CB1 and CB2 binding, in the column of the receptor with the higher binding affinity
T1 construct: host or cells: CHO-K1
Procedure: Compounds of the present disclosure were tested for CB1 receptor binding affinity and for CB2 receptor binding affinity. As used herein, “binding affinity” is represented by the IC50 value, which was experimentally determined as described herein. The lower the IC50 value the higher the binding affinity. A compound of the present disclosure may be said to have “binding selectivity” if it has a higher binding affinity for one receptor compared to the other.
The membranes were prepared from CHO-K1 (Chinese hamster ovary) cells stably transfected with the human CB2 receptor (Cat. #ES-111-C; Perkin Elmer, Boston, Mass.). The cells were grown adherently and maintained in Ham's F12 medium containing 10% fetal bovine serum (FBS), penicillin, streptomycin and geneticin (G418) at 37° C. in a humid atmosphere of 5% CO2 following the manufacturer's instructions.
For membrane preparation the cells were washed with PBS and scraped off the plates in cold homogenization buffer (25 mM HEPES (pH 7.4), 2 mM EDTA) containing protease inhibitor cocktail (Sigma Cat. #P8340). The cell suspension was homogenized with a Pro-PK-01200D Polytron Homogenizer (Pro Scientific) and then centrifuged for 30 min at 120,000×g. The supernatant was discarded and the pellet was re-suspended in the homogenization buffer and stored at −80° C. until the time of use.
In this experiment, 3H radiolabeled CP 55,940, i.e. [3H]CP 55,940 (Perkin Elmer, Boston, Mass.), was used as a radioligand for the CB2 receptor to determine the binding affinity of compounds for the CB2 receptor (Scheme 5; above).
The competition binding experiments (single dose and dose-response) were performed by incubating 0.6 nM of [3H]CP55,940 (specific activity 101 Ci/mmol, Perkin Elmer) and different concentrations of compounds disclosed herein with membranes prepared as above from CHO-K1 cells expressing human CB2 receptor (1 μg of protein/well), 50 mM Tris-HCl (pH 7.4), 5 mM MgCl2, 1 mM CaCl2, and 2 mg/mL BSA.
For the single dose experiments, the compound stocks (usually 10 mM in DMSO) were diluted to working stocks in the binding buffer to give the final compound concentrations of 10 μM and 1 μM. For the dose-response experiments the test compounds were sequentially diluted to provide the desired concentration range for the IC50 determination. In each case the compounds were pre-incubated with the membrane for 20 min, before adding the radioligand.
After incubation with the radioligand for 60 min at 37° C., the incubation was terminated by rapid filtration of assay mixture through MultiScreen®HTS+96-well filter plates (Millipore, Cat. #MSFCNXB), pre-soaked for 60 min with 50 mM Tris-HCl (pH 7.4) containing 0.33% polyethylenimine (PEI). The nonspecific binding (NSB) was determined in the presence of 10 μM unlabelled CP55,940. After drying the filter plate at 50° C. for at least 60 min, the filter-bound radioactivity was determined by scintillation spectrometry using the 1450 MicroBeta Plate Counter (Perkin Elmer, Boston, Mass.). From the dose-response experiments, the IC50 values were determined (see Table 1, CB2 IC50).

human CB1 receptor = molecular target: T2, human CB1 receptor (Homo sapiens, UniProt P21554); experiment: CB1 radioligand competitive binding assay ([3H]CP 55,940 displacement)
T2 construct: host or cells: CHO-K1

[1] = 0.6 nM [3H]CP55,940, membranes of CHO-K1 cells expressing human CB2 receptor, read-out: CB2 IC50
[2] = 0.8 nM [3H]CP 55,940, membranes of CHO-K1 cells expressing human CB1 receptor, read-out: CB1 IC50

T2 sequence (P21554 whole entry): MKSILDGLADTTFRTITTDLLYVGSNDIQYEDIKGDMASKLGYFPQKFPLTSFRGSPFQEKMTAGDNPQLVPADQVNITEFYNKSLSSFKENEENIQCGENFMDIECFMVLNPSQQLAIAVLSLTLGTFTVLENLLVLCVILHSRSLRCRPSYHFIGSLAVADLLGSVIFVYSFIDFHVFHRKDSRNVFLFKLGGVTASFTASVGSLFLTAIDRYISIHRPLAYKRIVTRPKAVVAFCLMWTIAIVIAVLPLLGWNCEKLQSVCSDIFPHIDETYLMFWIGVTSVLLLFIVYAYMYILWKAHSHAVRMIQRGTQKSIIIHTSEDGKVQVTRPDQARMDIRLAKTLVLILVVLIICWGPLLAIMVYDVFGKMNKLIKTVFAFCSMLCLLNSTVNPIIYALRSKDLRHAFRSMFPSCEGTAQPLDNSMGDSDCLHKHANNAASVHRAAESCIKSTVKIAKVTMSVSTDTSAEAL
T1 sequence (P34972 whole entry): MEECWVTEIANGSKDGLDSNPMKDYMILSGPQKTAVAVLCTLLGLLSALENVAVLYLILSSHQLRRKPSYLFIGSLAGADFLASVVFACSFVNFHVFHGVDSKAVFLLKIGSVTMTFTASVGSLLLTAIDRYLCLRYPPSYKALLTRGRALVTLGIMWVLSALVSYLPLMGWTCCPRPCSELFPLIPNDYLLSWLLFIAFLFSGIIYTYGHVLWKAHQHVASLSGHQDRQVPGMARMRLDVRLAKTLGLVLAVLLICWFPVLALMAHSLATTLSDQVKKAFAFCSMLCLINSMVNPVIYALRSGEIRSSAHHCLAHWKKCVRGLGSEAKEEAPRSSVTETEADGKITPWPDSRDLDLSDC

| Structure (SMILES) | IC50 (human CB2 receptor) [nM] | Selectivity CB2 (human CB2 receptor) [fold] | IC50 (human CB1 receptor) [nM] | IC50 (human CB2 receptor; [1]) [nM] | IC50 (human CB1 receptor; [2]) [nM] |
| --- | --- | --- | --- | --- | --- |
| CCCCCc1cc(O)c(C/C=C(\C)CCC=C(C)C)c2c1C(=O)OC(C)(COC)O2 (stereo not drawn) [Compound 11, 8-(3,7-dimethylocta-2,6-dien-1-yl)-7-hydroxy-2-(methoxymethyl)-2-methyl-5-pentyl-4H-benzo[d][1,3]dioxin-4-one] | < 1000 | 4.46 | 2500 to 4990 | – | – |
| CCCCCc1cc(O)c(C/C=C(\C)CCC=C(C)C)c2c1C(=O)OC(CC(C)=O)(c1ccc(OC)cc1)O2 (stereo not drawn) [Compound 17, 8-(3,7-dimethylocta-2,6-dien-1-yl)-7-hydroxy-2-(4-methoxyphenyl)-2-(2-oxopropyl)-5-pentyl-4H-benzo[d][1,3]dioxin-4-one] | – | 5.45 | – | < 1000 | 2500 to 4990 |
| CCCc1cc(O)c(C/C=C(\C)CCC=C(C)C)c2c1C(=O)OCO2 [Compound 18, 8-(3,7-dimethylocta-2,6-dien-1-yl)-7-hydroxy-5-propyl-4H-benzo[d][1,3]dioxin-4-one] | 1000 to 2490 | 3.88 | > 5000 | – | – |
| CCCCCc1cc(O)c(C/C=C(\C)CCC=C(C)C)c2c1C(=O)OC(CC(C)=O)(c1ccccc1)O2 (stereo not drawn) [Compound 12, 8-(3,7-dimethylocta-2,6-dien-1-yl)-7-hydroxy-2-(2-oxopropyl)-5-pentyl-2-phenyl-4H-benzo[d][1,3]dioxin-4-one] | < 1000 | 4.31 | 2500 to 4990 | – | – |
| CCCCCc1cc(O)c(C/C=C(\C)CCC=C(C)C)c2c1C(=O)OC(CC)O2 (stereo not drawn) [Compound 16, 8-(3,7-dimethylocta-2,6-dien-1-yl)-2-ethyl-7-hydroxy-5-pentyl-4H-benzo[d][1,3]dioxin-4-one] | – | 2.04 | – | 1000 to 2490 | 2500 to 4990 |
| CCCCCc1cc(O)c(C/C=C(\C)CCC=C(C)C)c2c1C(=O)OCO2 [Compound 1, 8-(3,7-dimethylocta-2,6-dien-1-yl)-7-hydroxy-5-pentyl-4H-benzo[d][1,3]dioxin-4-one] | – | 4.07 | – | 1000 to 2490 | > 5000 |
| CCCc1cc(O)c(C/C=C(\C)CCC=C(C)C)c2c1C(=O)OC(c1ccccc1)O2 (stereo not drawn) [Compound 19, 8-(3,7-dimethylocta-2,6-dien-1-yl)-7-hydroxy-2-phenyl-5-propyl-4H-benzo[d][1,3]dioxin-4-one] | 1000 to 2490 | 3.92 | > 5000 | – | – |
| CCCCCc1cc(O)c(C/C=C(\C)CCC=C(C)C)c2c1C(=O)OC(CC(C)=O)O2 (stereo not drawn) [Compound 14, 8-(3,7-dimethylocta-2,6-dien-1-yl)-7-hydroxy-2-(2-oxopropyl)-5-pentyl-4H-benzo[d][1,3]dioxin-4-one] | – | 2.64 | – | 1000 to 2490 | 2500 to 4990 |
| CCCCCc1cc(O)c(C/C=C(\C)CCC=C(C)C)c2c1C(=O)OC(c1ccccc1)O2 (stereo not drawn) [Compound 3, 8-(3,7-dimethylocta-2,6-dien-1-yl)-7-hydroxy-5-pentyl-2-phenyl-4H-benzo[d][1,3]dioxin-4-one] | 1000 to 2490 | 1.19 | 1000 to 2490 | – | – |
